# In US6974835B2, “Methods for decreasing cell proliferation based on (3r,4r)-Δ8-tetrahydrocannabinol-11-oic acids” (Indevus Pharmaceuticals, Inc., priority 2000, dated 2005):
# Key:
# tumor cells = test: Stereospecificity of inhibition of cell proliferation (D-isomer vs L-isomer); format: cell-based; conditions: 25 μM dose, FIG. 2, p<0.001
# [1] = test system: human cell lines derived from a variety of cancer types (brain, breast, bladder, lung, and prostate); test: 48 hour MTT assay, mean over the human cancer cell lines; conditions: 25 μM, mean of the ten lines of Table 1
# PC3 = test: 48 hour MTT assay, PC3; conditions: PC3 (Prostate), 25 μM
# U87 = test: 48 hour MTT assay, U87; conditions: U87 (Brain), 25 μM
# Du145 = test: 48 hour MTT assay, Du145; conditions: Du145 (Prostate), 25 μM
# HS578T = test: 48 hour MTT assay, HS578T; conditions: HS578T (Breast), 25 μM
# C6 cells = test: Lipid incorporation assay; format: cell-based; conditions: 25 μM, 14C-labeled arachidonic acid, 48 hours; for neutral lipids, increase above basal levels: FIG. 3
# J82 = test: 48 hour MTT assay, J82; conditions: J82 (Bladder), 25 μM
# U373 = test: 48 hour MTT assay, U373; conditions: U373 (Brain), 25 μM
# C6 glioma cells [2] = test: Microscopy of treated cells (cell size, refractile bodies, electron microscopy)
# [3] = test system: human glioma cell line U87 injected subcutaneously in nude mice; test: In vivo subcutaneous model; conditions: 0.1 mg/kg thrice weekly, FIG. 4
# Procedure: In vivo subcutaneous model. 10^6 U87 cells were injected into the right flank muscle of male nu/nu BALBc mice (Charles River). Two days after inoculation, the mice received either 0.1 mg/kg ajulemic acid in 0.05 ml of safflower oil or 0.05 ml safflower oil by oral administration. Thereafter, identical dosings were performed on each Monday, Wednesday, and Friday. When visible tumors appeared, the size of the tumors were estimated by averaging the values of two roughly perpendicular diameters measurements. Visible tumors were measured on the days of drug administration.
# Protein kinase C (PKC) = Protein kinase C (PKC) assay; format: cell-based; conditions: C6 cells, 25 μM, for one hour
# Procedure: Protein kinase C (PKC) assay. Cells were transferred into MEM media (0.5% serum) and cultured overnight. The next day, cells were treated with either DMSO or 25 μM ajulemic acid for the specified incubation time, after which the plates were trypsinized. 5×10^6 trypsinized cells were assayed for PKC activity using a kit (Calbiochem, cat. no. 53984).
# WI38 cells = test: Phase microscopy for refractile bodies, WI38; format: cell-based, rat; conditions: 48 hours, same dosage
# C6 glioma cells [4] = test: Viability by trypan blue exclusion
# C6 glioma cells [5] = test: Co-incubation with a CB1 antagonist, cell proliferation; format: cell-based; conditions: 3.2 μM of a specific CB1 antagonist
compound,measurement,setting,value
"CCCCCCC(C)(C)c1cc(O)c2c(c1)OC(C)(C)[C@@H]1CC=C(C(=O)O)C[C@@H]21 (single isomer, unassigned) [D-isomer of ajulemic acid]",potency of D-isomer compared to the L-isomer of ajulemic acid,tumor cells,marked decrease in the potency
CCCCCc1cc(O)c2c(c1)OC(C)(C)[C@@H]1CC=C(C(=O)O)C[C@@H]21 [THC-11-oic acid],inhibition levels (mean±SD) over the human cell lines,[1],13.1±18.5%
same,Percent inhibition of human cancer cell line growth,PC3,1 ± 1%
same,Percent inhibition of human cancer cell line growth,U87,5 ± 1%
same,Percent inhibition of human cancer cell line growth,Du145,7 ± 3%
same,Percent inhibition of human cancer cell line growth,HS578T,2 ± 1%
same,"neutral lipids, increase above basal levels",C6 cells,significant increase above basal levels was only noted for ajulemic acid
same,Percent inhibition of human cancer cell line growth,J82,1 ± 1%
same,Percent inhibition of human cancer cell line growth,U373,0%
same,refractile bodies noted (in words),"C6 glioma cells [2]; C6 glioma cells, 25 μM, 48 hours",no refractile bodies were noted
"CCCCCCC(C)(C)c1cc(O)c2c(c1)OC(C)(C)[C@@H]1CC=C(C(=O)O)C[C@@H]21 [ajulemic acid, 1′,1′-dimethylheptyl-Δ^8-THC-11-oic acid]",appearance and size of tumors (in words),[3],delay in both the appearance and size of tumors
same,PKC activity versus control,Protein kinase C (PKC),approximately two-fold above that of control
same,content of tri- and di-glyceride versus controls,C6 cells,over three-fold greater than in controls
same,"neutral lipids, increase above basal levels",C6 cells,significant increase above basal levels
same,refractile bodies noted (in words),WI38 cells,no refractile bodies were noted
same,cell size,C6 glioma cells [2]; after 48 hours of exposure,marked increase in cell size
same,appearance under electron microscopy,C6 glioma cells [2]; treated cells,neither apoptotic nor necrotic
same,viability rate,C6 glioma cells [4],> 95%
same,change in potency on co-incubation with CB1 antagonist,C6 glioma cells [5],slight potentiation
"CCCCCc1cc(O)c2c(c1)OC(C)(C)[C@@H]1CCC(C)=C[C@@H]21 [Δ^9-THC, tetrahydrocannabinol]","neutral lipids, increase above basal levels",C6 cells,significant increase above basal levels was only noted for ajulemic acid
same,change in potency on co-incubation with CB1 antagonist,C6 glioma cells [5],150%
